# Measurements: patent publication US5573926A, “Process for obtaining aroma components and aromas from their precursors of a glycosidic nature, and aroma components and aromas thereby obtained” (Gist-brocades, N.V., priority 1989, dated 1996)
# Legend:
# [1] = tested on: β-glucosidase (originating from Aspergillus niger); experiment: Inhibition of β-glucosidase activity by glucose in must and sweet wine; assay type: biochemical
# [2] = Enzymatic hydrolysis of a glycosidic extract in natural media (must, dry wine) by Hemicellulase REG2 + Naringinase; assay type: biochemical; details: 25° C., 86 hours
# Description: The enzymatic hydrolysis of a glycosidic extract incorporated, on the one hand into a natural medium (must or dry wine), and on the other hand into a reference medium (buffer), by the action of commercial preparations containing the requisite three glycosidases, was studied.
# A juice and a wine of a vine variety not containing terpenols and terpene glycosides, but enriched beforehand with a known amount of glycosidic extract of muscat, are treated with commercial enzyme preparations. The media, as well as controls, are incubated at 25° C. for 86 hours (see the experimental protocol plan below). They are then passed through a column of Amberlite XAD-2 according to the protocol applied for the production of the glycosidic extract, and the terpenols are assayed by GC.
# α-arabinosidase [3] = experiment: Enzymatic hydrolysis of synthetic substrates by α-arabinosidase (TLC); assay type: biochemical; details: 0.15 nkat, 40° C., 90 min, pH 4.2
# Description: (§1) Thin-layer adsorption chromatography was carried out on pieces of aluminium foil covered with a thin layer (0.2 mm) of silica gel (5553 Silica gel 60 without a fluorescence indicator, Merck). An ethyl acetate/isopropanol/water (65:30:10 v/v/v) mixture was used as a migration solvent.
# (§2) The sugars and the glycosides are visualized by means of the following mixture, prepared immediately before use: 0.2% naphthoresorcinol in ethanol/concentrated sulphuric acid (19:1 v/v). The application of this visualizing agent is followed by drying the plates in the oven (105° C.) for 15 minutes. Apart from their migration distance, the various compounds are also distinguished by their colour. The glycosides are purple-red, the arabinosides are bluish, the apiosides are green, rhamnose greenish pink, arabinose blue, apiose green and glucose pink.
# (§3) In all the tests relating to the enzymatic hydrolysis of the synthetic substrates, the same glycosidase activity (0.15 nkat) is used for each of the enzymes (α-arabinosidase, apiosidase, α-rhamnosidase, β-glucosidase).
# (§4) The hydrolysis and analysis protocols are given in plan form (Table 2). […]
# α-rhamnosidase [4] = experiment: Enzymatic hydrolysis of synthetic substrates by α-rhamnosidase (TLC); assay type: biochemical; details: 0.15 nkat, 40° C., 90 min, pH 4.2
# Description: as §1, §2, §3, §4
# α-arabinosidase [5] = experiment: Enzymatic hydrolysis of the muscat glycosidic extract by α-arabinosidase (GC); assay type: biochemical; details: for GC peak of the glycosidic extract after incubation with α-arabinosidase / Terpene monoglucosides liberated by α-arabinosidase from a glycosidic extract: 0.15 nkat, 40° C., 16 h; for Compounds appearing after action of α-arabinosidase: HPLC-collected peak, appears together with arabinose; for % of monoglucosides (liberated by the two enzymes together): sum of α-arabinosidase and α-rhamnosidase
# Description: (§5) 40 μl of glycosidic extract and 60 μl of a solution of Glc-pNP (internal standard) at a concentration of 50 mg/1 in ethyl acetate are introduced into a suitable flask. The mixture is taken to dryness at 40° C. with a stream of nitrogen. 40 μl of the silylating reagent (Tri-sil, Pierce, Rockford, Ill., U.S.A.) are then introduced; the flask is sealed and maintained at 40° C. for 20 minutes. After rapid cooling, the silylated sample is then ready for analysis by GC.
# (§6) The apparatus used consists of a Series 30C gas chromatograph, an "on-column" injector (injected volume 0.5 μl) and a flame ionization detector (Girdel, France). A thin film (0.20 μm) of an OV-1 (Girdel) apolar silicone phase is grafted onto the inner wall of the capillary column ([…].). The oven temperature is programmed from 125 to 305° C. at the rate of 5° C./minute, then maintained at 305° C. for 15 minutes. Finally, the detector temperature is set at 300° C. and hydrogen is used as the carrier gas at a pressure of 120 kPa.
# (§7) The experimental protocols for the enzymatic hydrolysis on the glycosidic extract are collated in Table 3. […]
# [6] = tested on: α-arabinosidase and then β-glucosidase; experiment: Sequential hydrolysis by α-arabinosidase and then β-glucosidase (GC of sugars, glucosides, terpenols); assay type: biochemical; details: HPLC-collected peak; appears together with glucose
# Description: The monoterpene alcohols studied here are sufficiently volatile to be chromatographed as they are. To the pentane extract containing them, the internal standard, 4-nonanol (for synthesis, Merck, Darmstadt, FRG) is added in the proportion of 1 μl of a solution at a concentration of 2.89 mg/ml in pentane per 50 μl of medium. The mixture is then dried over sodium sulphate, filtered through glass wool and then concentrated to a volume in the region of 100 μl For this purpose, the pentane is first removed using a conventional still, and then a Dufton type column of a size suited to the volume remaining to be concentrated.
# The constituents of the concentrated extract are separated using a capillary column (25 m×0.32 mm I.D.) containing a CP wax 52 CB (Chrompack, Middelburg, Netherlands) polar phase. The grafted polyethylene glycol film was selected thick (1.28 μm) in order to permit the injection of large sample volumes, up to 4 μl. […]
# Furthermore, each fraction was subjected to the sequential action of α-arabinosidase and then β-glucosidase. At the end of each stage and according to the procedures described, the incubated medium was analysed by GC in order to test for sugars and glucosides on the one hand, and for terpenols on the other hand. […]
# β-apiosidase = experiment: Enzymatic hydrolysis of Api-Glc-Ger by β-apiosidase present in Klerzyme 200 (TLC); assay type: biochemical
# Description: The β-apiosidase present in a commercial enzyme preparation (Klerzyme 200, Gist-brocades, France) was used without further purification.
# as §1, §2, §3
# α-rhamnosidase [7] = experiment: Enzymatic hydrolysis of the muscat glycosidic extract by α-rhamnosidase (GC); assay type: biochemical; details: 0.15 nkat, 40° C., 16 h
# Description: as §5, §6, §7
# β-glucosidase [8] = experiment: Second stage: consecutive action of β-glucosidase on the pre-incubated glycosidic extract (GC); assay type: biochemical, sweet almond; details: 0.15 nkat, 40°, 16 h
# Description: as §5, §6, §7
# β-glucosidase [9] = experiment: Enzymatic hydrolysis of synthetic substrates by β-glucosidase (TLC, pNP liberated, GC); assay type: biochemical, sweet almond; details: media previously incubated with α-arabinosidase or α-rhamnosidase; 0.15 nkat, 40° C., 90 min
# Description: as §2, with “An ethyl acetate/isopropanol/water (65:30:10 v/v/v) mixture was used as a migration solvent. The sugars” for “The sugars”, “glucose pink. […] The hydrolysis and analysis protocols are given in plan form (Table 2). […]” for “glucose pink.”
# [10] = target: T1, β-glucosidase (originating from the yeast Candida wickerhamii CBS 2928) (Nakazawaea wickerhamii, UniProt Q12601); experiment: Hydrolysis of monoglucosides in naturally sweet wines by Candida wickerhamii β-glucosidase; assay type: biochemical
# T1 sequence (Q12601 20-609): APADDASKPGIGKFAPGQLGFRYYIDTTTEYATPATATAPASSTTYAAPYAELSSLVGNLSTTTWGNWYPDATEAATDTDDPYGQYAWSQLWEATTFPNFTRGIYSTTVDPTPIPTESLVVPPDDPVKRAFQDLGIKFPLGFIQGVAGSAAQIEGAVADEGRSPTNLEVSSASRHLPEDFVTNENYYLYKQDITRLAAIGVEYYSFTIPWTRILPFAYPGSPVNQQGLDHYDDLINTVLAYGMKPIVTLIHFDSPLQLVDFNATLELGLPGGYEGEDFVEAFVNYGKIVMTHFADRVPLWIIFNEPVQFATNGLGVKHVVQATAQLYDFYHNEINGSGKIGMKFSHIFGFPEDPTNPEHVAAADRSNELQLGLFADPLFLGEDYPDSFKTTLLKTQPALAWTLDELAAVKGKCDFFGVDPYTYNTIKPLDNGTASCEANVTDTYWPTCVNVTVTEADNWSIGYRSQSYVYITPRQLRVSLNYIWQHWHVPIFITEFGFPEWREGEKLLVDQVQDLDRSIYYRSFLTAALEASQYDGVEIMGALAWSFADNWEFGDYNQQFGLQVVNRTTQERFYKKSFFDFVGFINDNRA
compound,measurement,setting,value
OC[C@H]1OC(O)[C@H](O)[C@@H](O)[C@@H]1O (stereo partly shown) [glucose],effect on β-glucosidase activity,[1]; glucose 30 g/l in naturally sweet wines,inhibiting β-glucosidase
same,effect on β-glucosidase activity,[1]; glucose present in large amounts in the must,inhibition of the β-glucosidase activity
OCc1ccccc1 [Benzyl alcohol],Compounds liberated relative to the reference medium,"[2]; MUST (pH 3.4, sugars 180 g/l)",46%
same,Compounds liberated relative to the reference medium,"[2]; WINE (dry white, pH 3.1)",50%
"O=[N+]([O-])c1ccc(O[C@@H]2O[C@H](CO[C@@H]3O[C@@H](CO)[C@H](O)[C@H]3O)[C@@H](O)[C@H](O)[C@H]2O)cc1 [Ara-Glc-pNP, p-Nitrophenyl 6-O-(α-L-arabinofuranosyl)-β-D-glucopyranoside]",hydrolysis by α-arabinosidase (TLC),α-arabinosidase [3],disappearance of this substrate and the appearance of arabinose and Glc-pNP
C[C@@H]1O[C@@H](OC[C@H]2O[C@@H](Oc3ccc([N+](=O)[O-])cc3)[C@H](O)[C@@H](O)[C@@H]2O)[C@H](O)[C@H](O)[C@H]1O [Rha-Glc-pNP],hydrolysis by α-rhamnosidase (TLC),α-rhamnosidase [4],disappearance of these substrates
"CC(C)=CCC/C(C)=C\CO[C@@H]1O[C@H](CO[C@@H]2O[C@@H](CO)[C@H](O)[C@H]2O)[C@@H](O)[C@H](O)[C@H]1O [Ara-Glc-Ner, neryl a-L-arabinofuranosyl-(1→6)-β-D-glucopyranoside]",GC peak of the glycosidic extract after incubation with α-arabinosidase,α-arabinosidase [5],disappear completely
same,Compounds appearing after action of α-arabinosidase,α-arabinosidase [5],Glc--Ner
same,Compounds appearing after action of α-arabinosidase and then β-glucosidase,[6],nerol
"CC(C)=CCC/C(C)=C/CO[C@@H]1O[C@H](CO[C@@H]2O[C@@H](CO)[C@H](O)[C@H]2O)[C@@H](O)[C@H](O)[C@H]1O (single isomer, unassigned) [Ara-Glc-Ger, Geranyl 6-O-(α-L-arabinofuranosyl)-β-D-glucopyranoside]",GC peak of the glycosidic extract after incubation with α-arabinosidase,α-arabinosidase [5],disappear completely
same,Compounds appearing after action of α-arabinosidase,α-arabinosidase [5],Glc--Ger
same,Compounds appearing after action of α-arabinosidase and then β-glucosidase,[6],geraniol
C=CC(C)(O)CCC=C(C)C (stereo not shown) [Linalol],Compounds liberated relative to the reference medium,"[2]; MUST (pH 3.4, sugars 180 g/l)",9%
same,Compounds liberated relative to the reference medium,"[2]; WINE (dry white, pH 3.1)",14%
"CC(C)=CCC/C(C)=C/CO[C@@H]1O[C@H](CO[C@@H]2OC[C@](O)(CO)[C@H]2O)[C@@H](O)[C@H](O)[C@H]1O [Api-Glc-Ger, geranyl β-D-apiofuranosyl-(1→6)-β-D-glucopyranoside]",hydrolysis by β-apiosidase present in Klerzyme 200 (TLC),β-apiosidase,disappearance of the substrate and the appearance of apiose and glucose
"CC(C)=CCC/C(C)=C/CO[C@@H]1O[C@H](CO[C@@H]2O[C@@H](C)[C@H](O)[C@@H](O)[C@H]2O)[C@@H](O)[C@H](O)[C@H]1O [Rha-Glc-Ger, Geranyl 6-O-(α-L-rhamnopyranosyl)-β-D-glucopyranoside]",hydrolysis by α-rhamnosidase (TLC),α-rhamnosidase [4],disappearance of these substrates
same,GC peak of the glycosidic extract after the action of α-rhamnosidase,α-rhamnosidase [7],decreases
"CC(C)=CCC/C(C)=C/CO[C@@H]1O[C@H](CO)[C@@H](O)[C@H](O)[C@H]1O [Glc-Ger, geranyl β-D-glucopyranoside]","hydrolysis by consecutive action of β-glucosidase (second stage, GC)",β-glucosidase [8],disappearance
same,"consecutive action of β-glucosidase (second stage, TLC)",β-glucosidase [9],disappearance of Glc-Ger and Glc-pNP and the appearance of glucose
same,Terpene monoglucosides liberated by α-rhamnosidase from a glycosidic extract,α-rhamnosidase [7],9%
same,hydrolyzed by Candida wickerhamii β-glucosidase,[10]; pH 3.6,45%
same,hydrolyzed by Candida wickerhamii β-glucosidase,[10]; pH 4.0,two thirds
same,Terpene monoglucosides liberated by α-arabinosidase from a glycosidic extract,α-arabinosidase [5],39%
same,% of monoglucosides (liberated by the two enzymes together),α-arabinosidase [5],48%
"CC(C)=CCC/C(C)=C\CO[C@@H]1O[C@H](CO)[C@@H](O)[C@H](O)[C@H]1O [Glc-Ner, neryl β-D-glucopyranoside]","hydrolysis by consecutive action of β-glucosidase (second stage, GC)",β-glucosidase [8],disappearance
same,Terpene monoglucosides liberated by α-rhamnosidase from a glycosidic extract,α-rhamnosidase [7],5%
same,hydrolyzed by Candida wickerhamii β-glucosidase,[10]; pH 3.6,19%
same,hydrolyzed by Candida wickerhamii β-glucosidase,[10]; pH 4.0,two thirds
same,Terpene monoglucosides liberated by α-arabinosidase from a glycosidic extract,α-arabinosidase [5],28%
same,% of monoglucosides (liberated by the two enzymes together),α-arabinosidase [5],33%
"O=[N+]([O-])c1ccc(O[C@@H]2O[C@H](CO)[C@@H](O)[C@H](O)[C@H]2O)cc1 [Glc-pNP, p-nitrophenyl β-D-glucopyranoside, reference compound]","consecutive action of β-glucosidase (second stage, TLC)",β-glucosidase [9],disappearance of Glc-Ger and Glc-pNP and the appearance of glucose
